From US8138168B1 (Takeda Pharmaceutical Company Limited, priority 2007, dated 2012) come the findings set out here.

The IC50 is the concentration needed to halve the response being measured.

This test addresses T1, Recombinant human renin (Homo sapiens, UniProt P00797).
T1 construct: isolate the active form (residues 67-406); made in house; host or cells: FreeStyle 293-F cells (transient expression of pcDNA3.1(+)/hREN)
T1 sequence (P00797 67-406): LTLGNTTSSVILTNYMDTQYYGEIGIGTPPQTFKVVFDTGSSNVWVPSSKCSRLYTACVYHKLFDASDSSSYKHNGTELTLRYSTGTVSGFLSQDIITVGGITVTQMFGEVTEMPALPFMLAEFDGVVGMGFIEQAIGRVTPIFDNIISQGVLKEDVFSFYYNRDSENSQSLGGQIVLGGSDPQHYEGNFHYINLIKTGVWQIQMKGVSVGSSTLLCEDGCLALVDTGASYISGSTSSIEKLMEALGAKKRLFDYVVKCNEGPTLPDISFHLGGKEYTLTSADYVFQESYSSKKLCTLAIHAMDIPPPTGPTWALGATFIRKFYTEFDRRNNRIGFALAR
Description: In vitro enzymatic activity assay of renin inhibitors (fluorogenic peptide substrate). The test is classed as biochemical. The settings on record: for IC50: read-out: IC50 of Exemplified Compounds Against Renin. An outline of the steps:
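Recombinant human renin (3 nM final) pre-incubated 10 min at 37 °C with compounds in pH 7.4 Hepes/EDTA/DTT/0.1 mg/mL BSA/Brij35 buffer (optionally plus 2% BSA), 5% DMSO final; fluorogenic QXL520/HiLyteFluo488 peptide substrate added.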

`COCCCn1c([C@@H]2CCCN(C(=O)[C@@H]3CN(c4cccc(C#N)c4)C[C@H]3N)C2)nc2ccccc21` [Compound 507]: the half-maximal inhibitory concentration (IC50) lay in the range of 0.1 to 1 µM.

Consider `COCCCn1c([C@@H]2CCCN(C(=O)[C@@H]3CN(c4ccc([N+](=O)[O-])cc4)C[C@H]3N)C2)nc2ccccc21` [Compound 508, ((3R,4S)-4-amino-1-(4-nitrophenyl)pyrrolidin-3-yl)((R)-3-(1-(3-methoxypropyl)-1H-benzo[d]limidazol-2-yl)piperidin-1-yl)methanone], for which the IC50 lay in the range of 0.1 to 1 µM.

As for `Nc1ncc(-c2ccc(C[C@@H](N)CC(=O)N3CCC[C@@H](c4nc5ccccc5n4CCF)C3)cc2)cn1` [Compound 509, (R)-3-amino-4-(4-(2-aminopyrimidin-5-yl)phenyl)-1-((R)-3-(1-(2-fluoroethyl)-1H-benzo[d]imidazol-2-yl)piperidin-1-yl)butan-1-one], the IC50 was 0.1 to 1 µM.

In the case of “(R)-3-amino-4-(4-chlorophenyl)-1-((S)-3-hydroxy-3-(1-(3-methoxypropyl)-1H-benzo[d]imidazol-2-yl)piperidin-1-yl)butan-1-one [Compound 247]”, the “Eutomer / distomer designation of the separated stereoisomers” value (isomers separated by preparative SFC, more or less active isomer as renin inhibitor) was “Eutomer”.
